In ChEMBL document CHEMBL4673293, “Trypanocidal activity of new 1,6-diphenyl-1H-pyrazolo[3,4-b]pyridine derivatives: Synthesis, in vitro and in vivo studies” (Bioorg Med Chem, 2021):
Activity calls are given as the source filed them. The rule behind the calls is not given here.

What was measured:
[1] = Cytotoxicity against monkey LLC-MK2 cells assessed as reduction in cell viability incubated for 72 hrs by MTT assay; assay type: cell-based, Macaca mulatta; conditions: rhesus monkey
Trypanosoma cruzi [2] = assay: (§1) Antitrypanosomal activity against intracellular amastigote form of Trypanosoma cruzi Tulahuen strain infected in monkey LLC-MK2 cells assessed as reduction in parasite viability incubated for 72 hrs by beta-galactosidase reporter gene assay; assay type: functional, organism-based
[3] = Selectivity index, ratio of CC50 for monkey LLC-MK2 cells to IC50 for antitrypanosomal activity against intracellular amastigote form of Trypanosoma cruzi Tulahuen strain infected in monkey LLC-MK2 cells; assay type: toxicity, cell-based; conditions: read-out: Ratio CC50/IC50
[4] = Hepatotoxicity in BALB/c mouse infected with blood trypomastigote form of Trypanosoma cruzi strain Y assessed as AST level in plasma at 25 mg/kg, po administered via gavage daily for 15 days starting from 2 days post-infection and measured on 16th day post-infection; assay type: toxicity, organism-based; conditions: in vivo, 360 h, time 15 day
[5] = Renal toxicity in BALB/c mouse infected with blood trypomastigote form of Trypanosoma cruzi strain Y assessed as creatinine level in plasma at 25 mg/kg, po administered via gavage daily for 15 days starting from 2 days post-infection and measured on 16th day post-infection; assay type: organism-based; conditions: in vivo, 360 h, time 15 day
[6] = Reduction in inflammatory cell infiltration in heart of BALB/c mouse infected with blood trypomastigote form of Trypanosoma cruzi strain Y at 25 mg/kg, po administered via gavage daily for 15 days starting from 2 days post-infection and measured on 16th day post-infection by haematoxylin and eosin staining based microscopic analysis relative to control; assay type: functional; conditions: 360 h, time 15 day
[7] = Cardiac toxicity in BALB/c mouse infected with blood trypomastigote form of Trypanosoma cruzi strain Y assessed as CK-MB level in plasma at 25 mg/kg, po administered via gavage daily for 15 days starting from 2 days post-infection and measured on 16th day post-infection; assay type: organism-based; conditions: in vivo, 360 h, time 15 day
[8] = Hepatotoxicity in BALB/c mouse infected with blood trypomastigote form of Trypanosoma cruzi strain Y assessed as ALT level in plasma at 25 mg/kg, po administered via gavage daily for 15 days starting from 2 days post-infection and measured on 16th day post-infection; assay type: toxicity, organism-based; conditions: in vivo, 360 h, time 15 day
Trypanosoma cruzi [9] = assay: (§2) Antitrypanosomal activity against blood trypomastigote form of Trypanosoma cruzi strain Y infected in BALB/c mouse assessed as reduction in parasite DNA load in host heart at 25 mg/kg, po administered via gavage daily for 15 days starting from 2 days post-infection and measured on 16th day post-infection by qPCR analysis relative to control; assay type: functional; conditions: for Activity: time 15.0 day
Trypanosoma cruzi [10] = assay: as §2, with “amastigote nest” for “parasite DNA load”, “haematoxylin and eosin staining based microscopic” for “qPCR”, “analysis” for “analysis relative to control”; assay type: functional; conditions: for inhibition in vivo at 25 mg/kg: 360 h, time 15 day
Trypanosoma cruzi [11] = assay: as §2, with “parasitemia” for “parasite DNA load in host heart”, “7th” for “16th”, “optical microscopy” for “qPCR analysis”; assay type: functional; conditions: 360 h, time 15 day
Trypanosoma cruzi [12] = assay: as §1, with “Potency index, ratio of benznidazole IC50 to test compound IC50 for antitrypanosomal” for “Antitrypanosomal”; assay type: functional
Trypanosoma cruzi [13] = assay: as §2, with “parasitemia” for “parasite DNA load in host heart”, “13th” for “16th”, “optical microscopy” for “qPCR analysis”; assay type: functional; conditions: 360 h, time 15 day
[14] = Trypanosoma cruzi, Tulahuen, LLC-MK2, 72 h, read-out: IC50

SMILES | CC50 at 72 h [1] | IC50 (Trypanosoma cruzi [2]; [14]) | selectivity ratio [3] | further results
CC(=O)N1N=C(c2cc(-c3ccccc3)nc3c2c(C)nn3-c2ccccc2)OC1c1cccc(O)c1 (stereo not drawn) | 17.2 µM | 10.5 µM | 1.63 | 
COc1ccc(C2OC(c3cc(-c4ccccc4)nc4c3c(C)nn4-c3ccccc3)=NN2C(C)=O)cc1OC(C)=O (stereo not drawn) |  |  |  | IC50 (Trypanosoma cruzi [2]; llc-mk2): Nd(Insoluble)
O=C(Cn1ccnc1[N+](=O)[O-])NCc1ccccc1 [BENZNIDAZOLE] | > 200 µM | 3.98 µM | > 50.2 | Activity [4]: Non-Toxic; Activity [5]: Non-Toxic; inhibition in vivo at 25 mg/kg [6]: 76%; Activity [7]: Non-Toxic; Activity [8]: Non-Toxic; inhibition in vivo at 25 mg/kg (Trypanosoma cruzi [9]; 360 h, time 15 day): 99%; inhibition in vivo at 25 mg/kg (Trypanosoma cruzi [10]): 100%
CC(=O)N1N=C(c2cc(-c3ccccc3)nc3c2c(C)nn3-c2ccccc2)OC1c1ccc(O)cc1 (stereo not drawn) | 34.4 µM | 17.7 µM | 1.94 | 
Cc1nn(-c2ccccc2)c2nc(-c3ccccc3)cc(C(=O)N/N=C/c3ccccc3O)c12 | > 200 µM | 0.85 µM | > 235 | Activity [4]: Non-Toxic; inhibition in vivo at 25 mg/kg (Trypanosoma cruzi [11]): 44.7%; Activity [5]: Non-Toxic; Ratio IC50 (Trypanosoma cruzi [12]): 4; inhibition in vivo at 25 mg/kg [6]: 62.5%; Activity [7]: Toxic; Activity [8]: Non-Toxic; Activity (Trypanosoma cruzi [9]): inactive; Activity (Trypanosoma cruzi [10]; time 15.0 day): inactive; inhibition in vivo at 25 mg/kg (Trypanosoma cruzi [13]): 14.5%
Cc1nn(-c2ccccc2)c2nc(-c3ccccc3)cc(C(=O)N/N=C/c3ccc(O)c(O)c3)c12 | 71.2 µM | 22.9 µM | 3.11 | 
Cc1nn(-c2ccccc2)c2nc(-c3ccccc3)cc(C(=O)N/N=C/c3ccc(O)cc3)c12 | > 250 µM | 21.4 µM | > 250 | 
COc1ccc(/C=N/NC(=O)c2cc(-c3ccccc3)nc3c2c(C)nn3-c2ccccc2)cc1O | 53 µM | 21 µM | 2.52 | 
CC(=O)Oc1cccc(C2OC(c3cc(-c4ccccc4)nc4c3c(C)nn4-c3ccccc3)=NN2C(C)=O)c1 (stereo not drawn) | > 100 µM | 16.2 µM | > 6.15 | 
CC(=O)Oc1ccc(C2OC(c3cc(-c4ccccc4)nc4c3c(C)nn4-c3ccccc3)=NN2C(C)=O)cc1 (stereo not drawn) | 64.8 µM | 22.6 µM | 2.86 | 
Cc1nn(-c2ccccc2)c2nc(-c3ccccc3)cc(C(=O)N/N=C/c3cccc(O)c3)c12 | 69.6 µM | 23.2 µM | 3 | 
CC(=O)Oc1ccccc1C1OC(c2cc(-c3ccccc3)nc3c2c(C)nn3-c2ccccc2)=NN1C(C)=O (stereo not drawn) | > 100 µM | 1.11 µM | > 90.1 | Activity [4]: Non-Toxic; inhibition in vivo at 25 mg/kg (Trypanosoma cruzi [11]): 46.1%; Activity [5]: Non-Toxic; inhibition in vivo at 25 mg/kg [6]: 51%; Activity [7]: Non-Toxic; Activity [8]: Non-Toxic; Activity (Trypanosoma cruzi [9]): inactive; inhibition in vivo at 25 mg/kg (Trypanosoma cruzi [10]): 57%; inhibition in vivo at 25 mg/kg (Trypanosoma cruzi [13]): 53%
CC(=O)Oc1ccc(C2OC(c3cc(-c4ccccc4)nc4c3c(C)nn4-c3ccccc3)=NN2C(C)=O)cc1OC(C)=O (stereo not drawn) | 54.5 µM | 33.9 µM | 1.6 | 
